Among the data in US20250074891A1 (Anaxis Pharma Pty Ltd., priority 2021, published 2025) are Kd, IC50 and DC50 values, retold here.

Structures are written as SMILES. Some results are limits rather than exact numbers.

One experiment addresses MLKL (full length) (Homo sapiens (Human), UniProt Q8NB16). Kind of experiment: KINOMEscan binding assay, MLKL (full length). The following applies: Table 36. As to the method: Kinase assays. For most assays, kinase-tagged T7 phage strains were grown in parallel in 24-well blocks in an E. coli host derived from the BL21 strain. E. coli were grown to log-phase and infected with T7 phage from a frozen stock (multiplicity of infection=0.4) and incubated with shaking at 32° C. until lysis (90-150 minutes).
The Hill Slope was set to −1.

Experiment [1] has as its system U937 human histiocytic leukemia cell line. Description: Cellular assay: inhibition of TSQ induced necroptosis (CellTitre-Glo). The conditions noted are these: Homo sapiens, U-937; U937 cells, TSQ cocktail, 48 hours, Table 38; read-out: Inhibition of TSQ-induced necroptosis (IC50 cell-based assay). The procedure, abridged:
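U937 cells (20,000/well) pre-dosed with compound (10-point, 1:3 from 36 μM, 0.3% DMSO), then TSQ (hTNF-Fc 100 ng/ml, Smac mimetic 500 nM, Q-VD-OPh 10 μM) for 48 h at 37 °C. Viability by CellTiter-Glo luminescence, normalised to DMSO (100%) and DMSO+TSQ (0%); IC50 from 4-parameter fit.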

The next experiment has as its system U937 cells. Kind of experiment: Counter screen: cell viability without TSQ cocktail (off-target effect). The arrangement: species or system human. The following applies: Homo sapiens, U-937, Table 38, read-out: Off-target effect (IC50 cell-based assay). As to the method: Counter screen: In parallel, all compounds were tested for their ability to affect cell viability. The same U937 cells were treated with compound in DMSO without the TSQ cocktail. This counter screen enabled evaluation of off-target effects. In this case, cell viability was measured by CelltiterGlo.
In general terms: A counterscreen serves to expose hits that act by an unwanted route or on another target.

The next experiment deals with endogenous MLKL in U937 (Homo sapiens (Human), UniProt Q8NB16). Description: Degradation assay: degradation of endogenous MLKL in human cells (Western blot). The following applies: 24 h incubation, read-out: Degradation of endogenous MLKL in U937 (DC50 cell-based assay in μM). The protocol: DEGRADATION ASSAY: Screening Compounds Procedure to Evaluate the Activity of Compounds in Degrading Endogenous MLKL in Human Cell
endogenous MLKL in U937, sequence (Q8NB16 whole entry): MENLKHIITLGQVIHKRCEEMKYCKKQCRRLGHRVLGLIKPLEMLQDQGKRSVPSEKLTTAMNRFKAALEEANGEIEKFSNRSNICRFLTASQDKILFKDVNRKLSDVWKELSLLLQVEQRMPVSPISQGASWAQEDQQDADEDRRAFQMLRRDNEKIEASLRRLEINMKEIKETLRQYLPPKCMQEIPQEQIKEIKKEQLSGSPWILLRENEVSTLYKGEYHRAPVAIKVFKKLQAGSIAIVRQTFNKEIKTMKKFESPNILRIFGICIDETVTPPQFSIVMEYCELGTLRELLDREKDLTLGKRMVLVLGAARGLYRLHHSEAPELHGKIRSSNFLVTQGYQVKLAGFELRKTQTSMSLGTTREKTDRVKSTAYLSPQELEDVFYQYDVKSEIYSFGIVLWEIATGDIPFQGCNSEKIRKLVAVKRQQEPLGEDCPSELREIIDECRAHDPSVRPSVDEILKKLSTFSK
The human monocyte cell line (U937) was seeded on the day of the experiment in a 24-well plate at a cell density of 5*10^5 cells per well in a volume of 0.5 mL per well.
The compound was diluted in DMSO with a starting concentration of 10 mM and titrated stepwise with a dilution of 1:5. 0.5 μL of the compound dilution was added to the appropriate well to achieve a final concentration of 10; 2; 0.4; 0.08 and 0.016 μM. A DMSO only well was included as control.
The cells were incubated for 24 h in the presence of the compound at 37° C. and 10% CO2.
After the 24 h incubation period, the medium was removed and cells washed with 0.5 mL PBS. The cells were then lysed directly in 60 μL of 1×SDS gel loading buffer.
The cell lysate was heat-denatured at […] for 10 min. 10 μL of lysate per well were run on 18-well 4-15% Criterion TGX stain free gels (BIO-RAD). The proteins were then transferred onto nitrocellulose membrane with a wet transfer protocol in the Criterion Blotter (BIO-RAD).
Membranes were blocked with 5% skim milk in TBST. Primary antibody against MLKL (clone 3H1, MABC604 Merck) was used at 1:2000 dilution in TBST with 1% BSA and left shaking over night at 4° C. After washes with TBST, the membranes were incubated with goat anti-rat IgG HRP-conjugated antibody (Southern Biotech) in 1% skim milk TBST at 1:10000 dilution for 1 h at room temperature. After TBST washes the bands were imaged on the ChemiDoc MP Imaging Systm (BIO-RAD) with Immobilion Western Chemiluminescent HRP Substrate Forte (Millipore). The loading control GAPDH was probed for with rabbit anti-GAPDH (CST 14C10) at 1:2000 dilution in 1% BSA TBST over night at 4° C. TBST washes were followed by incubation with goat anti-rabbit IgG HRP-conjugated antibody (Southern Biotech) in 1% skim milk TBST at 1:10000 dilution for 1 h at room temperature followed by TBST washes. The signal was detected as described above.
The band intensity was measured in the ImageLab Software (BIO-RAD) and the MLKL values adjusted for loading with GAPDH. The percentage of degradation was calculated by normalizing the compound treated values to the DMSO only control.

MLKL (full length), sequence (Q8NB16 whole entry): as above

As to `CCS(=O)(=O)Nc1ccc(-c2n[nH]c(Nc3ccnc(OCCOCCOCCOCCOCCOCCNC(=O)COc4cccc5c4C(=O)N(C4CCC(=O)NC4=O)C5=O)c3)c2C(N)=O)cc1` (centres unmarked) [Compound 1005, 5-[(2-{[17-(2-{[2-(2,6-dioxopiperidin-3-yl)-1,3-dioxo-2,3-dihydro-1H-isoindol-4-yl]oxy}acetamido)-3,6,9,12,15-pentaoxaheptadecan-1-yl]oxy}pyridin-4-yl)amino]-3-(4-ethanes-ulfonamidophenyl)-1H-pyrazole-4-carboxamide], on MLKL (full length), the Kd (as a rule, the equilibrium constant for the complex coming apart) was under 10 nM. The IC50 (commonly the point on the concentration scale where inhibition reaches its midpoint) was over 10000 nM in experiment [1] and over 10 µM in the experiment with U937 cells. Moreover, on endogenous MLKL in U937, the DC50 (usually the concentration giving 50% degradation) lay in the range of 1 to 10 µM.

`CCS(=O)(=O)Nc1ccc(-c2n[nH]c(Nc3ccnc(OCCCCC(=O)N[C@H](C(=O)N4C[C@H](O)C[C@H]4C(=O)NCc4ccc(-c5scnc5C)cc4)C(C)(C)C)c3)c2C(N)=O)cc1` [Compound 1013, 3-(4-ethanesulfonamidophenyl)-5-{[2-(4-{[(2S)-1-[(2S,4R)-4-hydroxy-2-({[4-(4-methyl-1,3-thiazol-5-yl)phenyl]methyl}carbamoyl)pyrrolidin-1-yl]-3,3-dimethyl-1-oxobutan-2-yl]carbamoyl}butoxy)pyridin-4-yl]amino}-1H-pyrazole-4-carboxamide] came in with a Kd on MLKL (full length) of under 10 nM. Also, the values for the IC50 (in experiment [1]; with U937 cells) were 1000 to 10000 nM and over 10 µM, respectively. Further, the DC50 at endogenous MLKL in U937 lay in the range of 1 to 10 µM.

`Cc1ncsc1-c1ccc(CNC(=O)[C@@H]2C[C@@H](O)CN2C(=O)[C@@H](NC(=O)CCCCOc2cc(Nc3[nH]nc(-c4ccc(NS(=O)(=O)CC(F)(F)F)cc4)c3C(N)=O)ccn2)C(C)(C)C)cc1` [Compound 1016, 5-{[2-(4-{[(2S)-1-[(2S,4R)-4-hydroxy-2-({[4-(4-methyl-1,3-thiazol-5-yl)phenyl]methyl}carbamoyl)pyrrolidin-1-yl]-3,3-dimethyl-1-oxobutan-2-yl]carbamoyl}butoxy)pyridin-4-yl]amino}-3-[4-(2,2,2-trifluoroethanesulfonamido)phenyl]-1H-pyrazole-4-carboxamide] had a Kd at MLKL (full length) of under 10 nM. In addition, the IC50 in experiment [1] was 1000 to 10000 nM; with U937 cells it was over 10 µM. For the same compound, the half-maximal degradation concentration (DC50) at endogenous MLKL in U937 fell in the range of 1 to 10 µM.

`CCS(=O)(=O)Nc1ccc(-c2n[nH]c(Nc3ccc(OCCCCC(=O)N[C@H](C(=O)N4C[C@H](O)C[C@H]4C(=O)NCc4ccc(-c5scnc5C)cc4)C(C)(C)C)cn3)c2C(N)=O)cc1` [Compound 1019, 3-(4-ethanesulfonamidophenyl)-5-{[5-(4-{[(2S)-1-[(2S,4R)-4-hydroxy-2-({[4-(4-methyl-1,3-thiazol-5-yl)phenyl]methyl}carbamoyl)pyrrolidin-1-yl]-3,3-dimethyl-1-oxobutan-2-yl]carbamoyl}butoxy)pyridin-2-yl]amino}-1H-pyrazole-4-carboxamide]: the Kd on MLKL (full length) was under 10 nM. Further, the results for the IC50 (in experiment [1]; with U937 cells) were under 1000 nM and over 10 µM, respectively. For the same compound, the DC50 on endogenous MLKL in U937 was under 1 µM.

The compound `Cc1ncsc1-c1ccc(CNC(=O)[C@@H]2C[C@@H](O)CN2C(=O)[C@@H](NC(=O)CCCCOc2ccc(Nc3[nH]nc(-c4ccc(NS(=O)(=O)CC(F)(F)F)cc4)c3C(N)=O)nc2)C(C)(C)C)cc1` [Compound 1020, 5-{[5-(4-{[(2S)-1-[(2S,4R)-4-hydroxy-2-({[4-(4-methyl-1,3-thiazol-5-yl)phenyl]methyl}carbamoyl)pyrrolidin-1-yl]-3,3-dimethyl-1-oxobutan-2-yl]carbamoyl}butoxy)pyridin-2-yl]amino}-3-[4-(2,2,2-trifluoroethanesulfonamido)phenyl]-1H-pyrazole-4-carboxamide] showed a Kd at MLKL (full length) of under 10 nM. Besides, the values for the IC50 (in experiment [1]; in the experiment on U937 cells) were under 1000 nM and over 10 µM, respectively. Further, the DC50 at endogenous MLKL in U937 is under 1 µM.
